Data set [1] has as its system amphetamine-induced hyperlocomotion in male Sprague-Dawley rats. The data set is described as follows: Amphetamine-induced hyperlocomotion in rats. The data set is classed as in vivo. The conditions noted are these: rat; for percent reversal of amphetamine-induced hyperlocomotion: amphetamine 0.75 mg/kg s.c. How it is done:
Drugs: d-Amphetamine hemisulfate was obtained from Sigma (St. Louis, MO). Salt-correction was used to determine the correct amount of the d-amphetamine hemisulfate form in milligrams to add to sterile water in order to yield a 0.75 mg/mL solution, which would be dosed at 1 mL/kg body weight of each animal. […] The solutions were formulated so that animals were injected with a volume equal to 10 mL/kg body weight for all compounds. The appropriate amount according to the dosage was mixed in 10% Tween 80 (Sigma) in sterile water. The mixtures were then vortexed and stored in a 39° C. sonication bath for 1 hour, until in a solution or microsuspension (depending on dose).
Animals: Male Sprague-Dawley rats weighing 239-300 grams and averaging 265 g (Harlan, Inc., Indianapolis, IN) were used. They were housed in the animal care facility certified by the American Association for the Accreditation of Laboratory Animal Care (AALAC) under a 12-hour light/dark cycle (lights on: 6 a.m.; lights off: 6 p.m.) and had free access to food and water. The animals used in this experiment were food-deprived the evening before experimentation for oral dosing of compound/vehicle. The experimental protocols performed during the light cycle were approved by the Institutional Animals Care and Use Committee of Vanderbilt University and conformed to the guidelines established by the National Research Council Guide for the Care and Use of Laboratory Animals.
Amphetamine-induced Hyperlocomotion: Male Harlan Sprague Dawley rats were habituated in Smart Open Field locomotor activity test chambers (Hamilton-Kinder, San Diego, CA) with 16×16 photo beams to automatically record locomotor activity. […] They were monitored for an additional 30 minutes and then injected subcutaneously with vehicle or 0.75 mg/kg amphetamine. Animals were then monitored for an additional 60 minutes, for a total of 120 minutes. Data were expressed as changes in ambulation defined as total number of beam breaks per 5 minute interval. Terminal brain and plasma samples were collected at the end of the study for pharmacokinetic analysis.
Data Analysis: Behavioral data were analyzed using a two-way ANOVA with main effects of treatment and time. Post hoc analysis was performed using a Dunnett's t-test with all treatment groups compared to the Vehicle/amphetamine group (VAMP) group using GraphPad Prism V.5.04 (GraphPad Software, San Diego, CA). Data were graphed using GraphPad Prism V.5.04 (GraphPad Software, San Diego, CA). A probability of p≤0.05 was taken as the level of statistical significance. In addition, the total number of beam breaks from the amphetamine administration (65 min) to the end of the study (120 min) was calculated and graphed. Percent Reversal was calculated as follows using Microsoft Excel: In each animal, total ambulation from t=65 to t=120 was summed. The mean of each sum was calculated in the VAMP group. Then, for each animal, Percent Reversal was calculated with the following formula: Percent Reversal=100−{[(total ambulation in each animal from t=65 to t=120)/(mean of each sum from t=65 to t=120 in VAMP group)]*100}. The mean Percent Reversal, as well as the standard error, was calculated for each dose group using GraphPad Prism V5.04.

A short description of data set [2]: MDCK-MDR1 efflux ratio and permeability. The class given is in vitro ADME. As to conditions: dog, MDCK-MDR1. An excerpt:
(§1) Compounds may be tested in in vitro assays to investigate both metabolism and pharmacokinetics. These assays may be performed according to known methods as generally described in the following references: Conde-Ceide et al. ACS Med. Chem. Lett. 2015, 6, 716-720; Morris et al. J. Med. Chem. 2014, 57, 10192-10197; and Bubser et al. ACS Chem. Neurosci. 2014, 5, 920-942.

In the next data set the test system is MDCK-MDR1. The data set is described as follows: MDCK-MDR1 efflux ratio and permeability. The conditions noted are these: efflux ratio. The data set is classed as in vitro ADME.
Excerpt: as §1

Data set [3] is described as follows: Rat fraction unbound in plasma. The data set is classed as in vitro ADME. The conditions noted are these: read-out: Rat Fu (plasma).
Excerpt: as §1

Data set [4] in a line: Rat fraction unbound in brain. The class given is in vitro ADME. As to conditions: read-out: Rat Fu (brain).
Excerpt: as §1

Another data set can be described thus: Dog intrinsic clearance. The data set is classed as in vitro ADME.
Excerpt: as §1

Data set [5] can be described thus: Human intrinsic clearance. The data set is classed as in vitro ADME.
Excerpt: as §1

In the next data set the target is P450 3A4 (Homo sapiens, UniProt P08684). Nature of the data set: P450 3A4 inhibition. The class given is in vitro ADME.
Excerpt: as §1

The target of a further data set is P450 2D6 (Homo sapiens, UniProt P10635). The data set is described as follows: P450 2D6 inhibition. The data set is classed as in vitro ADME.
Excerpt: as §1

The next data set deals with P450 2C9 (Homo sapiens, UniProt P11712). The data set is described as follows: P450 2C9 inhibition. The data set is classed as in vitro ADME.
Excerpt: as §1

A short description of data set [6]: In vivo pharmacokinetic study in rat.
A short description of data set [7]: In vivo pharmacokinetic study in dog.

SMILES strings stand for the structures.

A word on the Papp A→B: it is the apparent permeability from the apical to the basolateral side of a cell layer. A word on the CLint scaled: it is the capacity of the preparation to metabolise the compound, expressed as a volume cleared per time. Read a high CLint scaled as faster metabolism. What is called IC50 is the concentration at which inhibition is half-maximal. As usually defined, the Kp is tissue or fluid exposure divided by exposure in the circulation.

Sequence of P450 2D6 (P10635 whole entry): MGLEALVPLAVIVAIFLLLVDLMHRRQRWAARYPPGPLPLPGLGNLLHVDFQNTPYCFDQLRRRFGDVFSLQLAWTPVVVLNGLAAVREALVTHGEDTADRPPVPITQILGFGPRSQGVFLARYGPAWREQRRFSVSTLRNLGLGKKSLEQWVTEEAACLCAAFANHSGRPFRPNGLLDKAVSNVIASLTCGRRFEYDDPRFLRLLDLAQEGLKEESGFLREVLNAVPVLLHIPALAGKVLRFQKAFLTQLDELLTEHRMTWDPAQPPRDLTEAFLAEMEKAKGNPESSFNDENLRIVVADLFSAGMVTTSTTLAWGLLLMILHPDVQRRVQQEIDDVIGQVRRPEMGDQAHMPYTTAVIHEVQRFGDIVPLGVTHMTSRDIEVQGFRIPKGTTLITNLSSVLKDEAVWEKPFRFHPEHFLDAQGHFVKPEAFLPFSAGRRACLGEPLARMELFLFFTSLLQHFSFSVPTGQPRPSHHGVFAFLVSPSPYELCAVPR
Sequence of P450 2C9 (P11712 whole entry): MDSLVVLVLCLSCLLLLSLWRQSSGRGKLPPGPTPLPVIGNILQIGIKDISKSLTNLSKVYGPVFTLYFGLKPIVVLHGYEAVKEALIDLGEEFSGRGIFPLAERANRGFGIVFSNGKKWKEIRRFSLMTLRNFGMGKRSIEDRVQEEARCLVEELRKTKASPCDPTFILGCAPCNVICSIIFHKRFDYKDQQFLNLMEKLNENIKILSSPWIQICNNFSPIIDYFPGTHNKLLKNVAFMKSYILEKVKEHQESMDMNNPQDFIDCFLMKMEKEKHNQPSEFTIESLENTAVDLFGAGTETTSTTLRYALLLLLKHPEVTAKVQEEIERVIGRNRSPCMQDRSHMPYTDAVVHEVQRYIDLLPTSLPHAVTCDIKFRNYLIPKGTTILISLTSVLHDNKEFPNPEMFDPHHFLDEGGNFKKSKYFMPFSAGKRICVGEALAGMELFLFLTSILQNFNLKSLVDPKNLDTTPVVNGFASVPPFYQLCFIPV
Sequence of P450 3A4 (P08684 whole entry): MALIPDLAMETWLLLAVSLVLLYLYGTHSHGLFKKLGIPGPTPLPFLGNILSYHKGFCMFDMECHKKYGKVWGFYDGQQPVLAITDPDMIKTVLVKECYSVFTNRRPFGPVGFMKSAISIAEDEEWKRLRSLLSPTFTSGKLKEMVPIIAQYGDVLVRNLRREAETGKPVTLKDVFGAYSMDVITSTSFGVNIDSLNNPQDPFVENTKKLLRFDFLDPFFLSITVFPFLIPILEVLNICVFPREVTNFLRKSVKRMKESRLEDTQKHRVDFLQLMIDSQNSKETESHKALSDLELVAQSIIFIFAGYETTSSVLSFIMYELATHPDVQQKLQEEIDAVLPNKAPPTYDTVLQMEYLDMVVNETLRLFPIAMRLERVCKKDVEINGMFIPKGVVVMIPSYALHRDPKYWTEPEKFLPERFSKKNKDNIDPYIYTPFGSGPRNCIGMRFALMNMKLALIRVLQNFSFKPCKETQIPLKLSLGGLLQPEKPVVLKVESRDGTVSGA

With `[2H]C1([2H])Oc2ccc(OC3CCN(c4nc5c(cc4C)C(=O)NC5)CC3)cc2OC1([2H])[2H]` [Compound 3, 2-(4-((2,3-dihydrobenzo[b][1,4]dioxin-6-yl-2,2,3,3-d4)oxy)piperidin-1-yl)-3-methyl-6,7-dihydro-5H-pyrrolo[3,4-b]pyridin-5-one], the “percent reversal of amphetamine-induced hyperlocomotion” value in data set [1] (1 mg/kg oral gavage) amounted to 27.5%; in data set [1] (1.8 mg/kg oral gavage), 40.1%; in data set [1] (3 mg/kg oral gavage), 59.1%; in data set [1] (5.6 mg/kg oral gavage), 60.9%. For the same compound, in data set [1] (systemic administration), the “reversal of amphetamine-induced hyperlocomotion (in words)” value is “significant and sustained reversal”. Further, the Papp A→B in data set [2] amounted to 45.5 ×10⁻⁶ cm/s. Moreover, the “MDCK-MDR1 ER” value in the data set with MDCK-MDR1 was 1.3. Moreover, the fraction unbound in data set [3] worked out at 0.026; in data set [4] it was 0.015. For the same compound, the figures for the intrinsic metabolic clearance (CLint scaled) (in “Dog intrinsic clearance”; in data set [5]) were 19 mL/min/kg and 15 mL/min/kg, respectively. Further, the IC50 on P450 3A4, against P450 2D6 and against P450 2C9 was greater than 100 µM in each case. In [6] (3 mg/kg oral), the “Rat oral F” value is greater than 100%. The Kp in [6] (brain, read-out: Rat brain: plasma Kp) amounted to 1.2. Besides, the Kp uu in data set [6] (brain, unbound, read-out: Rat brain: plasma Kp, uu) came to 0.7. In addition, the clearance came to 16.9 mL/min/kg in data set [6] (plasma, read-out: Rat CLp) and 1.8 mL/min/kg in [7] (plasma, read-out: Dog CLp). In addition, the half-life in [6] (plasma, read-out: Rat Elim. t1/2 (converted)) was 84 min; in data set [7] (plasma, read-out: Dog Elim. t1/2 (converted)), 456 min. Further, the Vd is 1.6 L/kg in data set [6] (plasma, read-out: Rat Vss) and 1 L/kg in data set [7] (plasma, read-out: Dog Vss). The “Dog oral F” value in [7] (3 mg/kg oral) was found to be 89%.

The values above are taken from US12552790B2, “Positive modulators of the muscarinic acetylcholine receptor M4” (Vanderbilt University, priority 2023, dated 2026).
